Each compound was assayed against T1, MeCP2-TBL1 interaction (MeCP2-SmBiT / TBL1-LgBiT) (Mus musculus, UniProt Q9QXE7) (assay: MeCP2-TBL1 NanoLuc luciferase complementation assay (cell-free, extracts of transfected HEK293 cells)). Conditions: primary screen of Asinex library, single well per compound.
T1 construct: expressed in transfected cells; crude lysate used as a cell-free assay
T1 sequence (Q9QXE7 166-527): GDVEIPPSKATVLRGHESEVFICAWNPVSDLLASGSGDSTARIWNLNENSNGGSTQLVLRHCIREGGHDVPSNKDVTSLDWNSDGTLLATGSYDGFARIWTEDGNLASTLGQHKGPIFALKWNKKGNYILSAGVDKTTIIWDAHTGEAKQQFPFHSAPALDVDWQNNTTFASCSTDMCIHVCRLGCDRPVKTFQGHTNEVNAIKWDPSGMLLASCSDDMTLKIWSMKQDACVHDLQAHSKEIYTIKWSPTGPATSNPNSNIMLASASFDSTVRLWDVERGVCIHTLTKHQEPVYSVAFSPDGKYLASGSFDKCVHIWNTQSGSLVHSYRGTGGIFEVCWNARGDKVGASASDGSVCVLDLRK
Type: binding, human
How it was run: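 Cell-free split NanoLuc: lysate of HEK293 cells co-expressing the MeCP2 C-terminal half-SmBiT and TBL1 WD domain-LgBiT, mixed 1:1 with furimazine. After 30 min at room temperature, luminescence was plate-median normalized.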
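Further: each compound tested at 20 µM final concentration.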

Compound | Inhibition percent
CC1(C)Oc2c(O)cccc2[C@@H]2O[C@@H]3CCN(C(=O)c4cccc(Cn5ccnc5)c4)[C@@H]3C[C@H]21 [BDG_34133887] | 0.92
CN(Cc1ccccc1)[C@@H]1[C@@H](O)[C@H](Oc2ccccc2F)C[C@H]1NC(=O)CC(C)(C)CC(=O)O [BDG_34135529] | 1.25
CN(Cc1ccc(F)cc1)[C@@H]1[C@@H](O)[C@H](Oc2ccccc2F)C[C@H]1NC(=O)CC(C)(C)CC(=O)O [BDG_34135530] | 5.96
CN(Cc1ccc(F)cc1)[C@@H]1[C@@H](O)[C@H](Oc2cccc(F)c2)C[C@H]1NC(=O)c1cccc(C(=O)O)c1 [BDG_34135616] | 1.33
CC1(C)Oc2ccc(C(=O)O)cc2[C@H]2O[C@H]3CCSC[C@H]3C[C@@H]21 [BDG_51128812] | -0.06
Cc1nc(Nc2ncc(C#N)s2)ccc1CC1COCCN(S(C)(=O)=O)C1 (stereo not shown) [BDG_51128826] | -0.16
CC(=O)c1ccc(NC(=O)CN2CCC[C@@H]3O[C@@H]4c5cc(Cl)ccc5OC(C)(C)[C@H]4C[C@@H]32)cc1 [BDG_51129056] | -1.84
COc1cccc2c1OC(C)(C)[C@@H]1C[C@H]3CN(CC(=O)Nc4ccc(C(C)=O)cc4)CC[C@H]3O[C@@H]21 [BDG_51129062] | 4.58
Cc1c(NC(=O)CN2[C@H](Cc3ccccc3)C[C@]3(C)NC(=O)CCC[C@H]23)cnn1C [BDH_24639966] | 0.23
C[C@]12C[C@@H](c3ccccc3)N(CC(=O)N3CC(=O)Nc4ccccc43)[C@H]1CCCCCN2 [BDH_32250993] | 1.88
CN(C)c1cncc(C2CCCN2C(=O)c2ccccc2OCCN2CCOCC2)n1 (stereo not shown) [BDH_32345043] | 1.00
CN1CCN(c2cc(C(=O)N3CCCCC3CCNC(=O)c3ccccc3)ccn2)CC1 (stereo not shown) [BDH_32345153] | -1.36

Second part, the compound after the results:

Inhibition percent | Compound
-1.63 | C[C@]12C[C@@H](Cc3ccccc3)N(C(=O)c3cccc(Cn4cccn4)c3)[C@H]1CCCC(=O)N2 [BDH_24639058]
-1.17 | O=C1CCCC[C@]2(CN(C(=O)CCc3ccc(F)cc3)C[C@H]2c2ccccc2)N1 [BDH_32219010]
-2.84 | O=C(c1ccc(Cc2ccc(F)cc2)nc1)N1CCCC2(CC1)CN(c1ccccc1)C(=O)O2 (stereo not shown) [BDH_32295955]
-0.22 | O=C(c1ccc(Cc2cccc(F)c2)nc1)N1CCCC2(CC1)CN(c1ccccc1)C(=O)O2 (stereo not shown) [BDH_32296010]
-4.87 | CC(C)(NC(=O)Cc1ccccc1)C(=O)N1CCCC(Cc2cccc3ncccc23)C1 (stereo not shown) [BDH_32327552]
-2.43 | CC(C)(NC(=O)Cc1ccccc1)C(=O)N1CCCC(Cc2cccn3ccnc23)CC1 (stereo not shown) [BDH_32327598]
-2.64 | CC(C)(NC(=O)CCc1ccccc1)C(=O)N1CCC(Cc2ccc3ncccc3c2)CC1 [BDH_32328019]
-0.56 | Cc1nccn1Cc1ccccc1C(=O)N1CCCC(Cc2cccc3ccncc23)CC1 (stereo not shown) [BDH_32339307]
5.72 | C[C@]12C[C@@H](Cc3ccccc3)N(C(=O)c3cccc(Cn4ccnc4)c3)[C@H]1CCCC(=O)N2 [BDH_32339936]
1.41 | O=C(N1CCC(Cc2ccc3ncccc3c2)CC1)C1(c2ccccc2)CCOCC1 [BDH_32341682]
6.68 | O=C(N1CCC(Cc2cccc3cccnc23)CC1)C1(c2ccccc2)CCOCC1 [BDH_32341683]
-2.98 | COc1ccc(C(=O)N2CCCC(Cc3ccccn3)C2)cc1NCc1cccnc1 (stereo not shown) [BDH_32341951]
1.12 | Cc1ccc(C2(C(=O)N3CCC4(CC3)CC(Oc3ccccc3)CO4)CCOCC2)cc1 (stereo not shown) [BDH_32343765]

Same assay, conditions: primary screen of the Asinex library, sheet "Sargen output Asinex library", one well per compound

Compound | Inhibition percent [%]
CC1(C)Oc2c(O)cccc2[C@H]2O[C@H]3CCN(CC(=O)N4CC(=O)Nc5ccccc54)[C@@H]3C[C@@H]21 [BDG_34134040] | 2.67
CN(Cc1ccccc1)[C@@H]1[C@@H](O)[C@H](Oc2ccc(F)c(F)c2)C[C@H]1NC(=O)CC(C)(C)CC(=O)O [BDG_34135525] | 1.42
Clc1cccc(Cc2cncc(C3CCCN3Cc3ccnc(N4CCOCC4)n3)n2)c1 (stereo not shown) [BDH_27227771] | 3.31
O=C(N1CCC2(CC1)COC(Cc1cccc(F)c1)C2)C1(c2cccc(F)c2)CCOCC1 (stereo not shown) [BDH_32247901] | 0.54
CC(C)(NC(=O)c1ccccc1)C(=O)N1C[C@@H](c2ccc(F)cc2)[C@@]2(CCCC(=O)N2)C1 [BDH_32326628] | 0.18
CC(C)(NC(=O)c1ccccc1)C(=O)N1C2CCC1CC(Cc1ccc3ccncc3c1)C2 (stereo not shown) [BDH_32326823] | -1.86
CN(C)c1cncc(C2CCCN2C(=O)C2(C)CCN(C(=O)c3cccc(F)c3)CC2)n1 (stereo not shown) [BDH_32329258] | -1.39
Cc1cccc(Oc2cncc(C3CCCN(C(=O)c4ccc(-n5cccn5)nc4)C3)n2)c1 (stereo not shown) [BDH_32330488] | 5.13
Cc1cccc(Oc2cncc(C3CCCN(C(=O)c4cccc(-n5cnnc5)c4)C3)n2)c1 (stereo not shown) [BDH_32340252] | -3.70
O=C(c1cccc(-n2cnnc2)c1)N1CCOCC(Cc2cccc3occc23)C1 (stereo not shown) [BDH_32340409] | -8.70
c1ccc(COc2cccc(CN3CCOCC(Cc4ccc5nccn5n4)C3)c2)nc1 (stereo not shown) [BDH_32351403] | -0.41

Next, values leading:

Inhibition percent [%] | Compound
-4.76 | Cc1cc(C)n(-c2cccc(C(=O)N3C[C@@H](c4ccccc4)[C@@]4(CCCCC(=O)N4)C3)c2)n1 [BDH_20395756]
4.01 | CC(=O)N[C@@]12CN(CC(=O)Nc3cccc4c3CCCC4)CC[C@@H]1[C@@H](c1ccccc1)N(C)C2 [BDH_32251192]
0.62 | O=C1OC2(CCN(C(=O)C3(c4ccccc4)CCCC3)C2)CN1Cc1ccc(F)cc1 (stereo not shown) [BDH_32289921]
-0.57 | COc1ccccc1Cc1ccc(C(=O)N2CCCC3(CC2)CN(c2ccccc2)C(=O)O3)cn1 (stereo not shown) [BDH_32296020]
-0.70 | O=C1COC2(CCCN(C(=O)c3cccc4cccnc34)CC2)CN1CCc1ccccc1 (stereo not shown) [BDH_32296359]
5.07 | O=C(c1ccnc(Cc2cccc(F)c2)c1)N1CCC[C@]2(C[C@@H](Oc3ccc(F)cc3)CO2)C1 [BDH_32304392]
-2.98 | O=C1OC2(CCCN(C(=O)c3ccc(-n4cccn4)nc3)CC2)CN1Cc1ccccc1 (stereo not shown) [BDH_32330719]
15.90 | CC(=O)NC(F)(Cc1ccccc1)C(=O)N1CCC(Cc2cccc3cccnc23)CC1 (stereo not shown) [BDH_32336432]
-0.91 | Cc1nccn1Cc1ccccc1C(=O)N1CCCC(Cc2cccc3cccnc23)C1 (stereo not shown) [BDH_32339247]
3.41 | Cc1nccn1Cc1ccccc1C(=O)N1CCCC(Cc2cccc3cccnc23)CC1 (stereo not shown) [BDH_32339298]
-0.06 | O=C(c1cccc(Cn2ccnc2)c1)N1CCCC(c2nccnc2Oc2ccccc2)C1 (stereo not shown) [BDH_32339912]
0.32 | O=C(c1ccccc1Cn1cccn1)N1CCCC1c1cncc(Cc2cccc(F)c2)n1 (stereo not shown) [BDH_32340865]
-1.09 | O=C(c1ccccc1CN1CCOCC1)N1CCCC(Cc2cnc3ccccc3c2)CC1 (stereo not shown) [BDH_32342370]
5.16 | O=C(c1ccccc1CN1CCCC1)N1CCC2(CC1)COC(Cc1cccc(F)c1)C2 (stereo not shown) [BDH_32342523]
-2.33 | COc1ccc(C2(C(=O)N3CCC(Cc4ccc5ncccc5c4)CC3)CCOCC2)cc1 [BDH_32344075]
3.92 | COc1ccc(C2(C(=O)N3CCC(Cc4cccc5cccnc45)CC3)CCOCC2)cc1 [BDH_32344076]

Same assay, conditions: primary screen of the Asinex library, sheet "Sargen output Asinex library", one well per compound, Batch Ref. 1

Compound | Inhibition percent [%]
CC1(C)Oc2ccccc2[C@@H]2O[C@@H]3CCN(C(=O)c4cccc(Cn5ccnc5)c4)C[C@@H]3C[C@H]21 [BDG_34133919] | 1.73
CC1(C)Oc2ccc(Cl)cc2[C@H]2O[C@H]3CCN(CC(=O)N4CC(=O)Nc5ccccc54)C[C@@H]3C[C@@H]21 [BDG_34134010] | 2.78
CC1(C)Oc2ccc(Cl)cc2[C@@H]2O[C@@H]3CCN(CC(=O)N4CC(=O)Nc5ccccc54)C[C@@H]3C[C@H]21 [BDG_34134082] | 3.72
Cc1cc(O[C@@H]2C[C@@H](NC(=O)CCCC(=O)O)[C@H](N3CCc4ccccc4C3)[C@H]2O)cc(C(C)C)c1 [BDG_34135452] | -0.70
O=C(O)CCCC(=O)N[C@@H]1C[C@@H](Oc2cccc(Cl)c2)[C@H](O)[C@H]1N1CCc2ccccc2C1 [BDG_34135462] | -0.65
COC(=O)c1ccc(NC(=O)c2cccc(Br)c2OCC(=O)O)cc1 [BDG_51125744] | 7.09
Cc1c(F)cccc1NC(=O)CN1[C@H](Cc2ccccc2)C[C@]2(C)NC(=O)CCC[C@H]12 [BDH_24639961] | 0.80
Cc1cc(C)nc(NCCC(=O)N2[C@H](Cc3ccccc3)C[C@]3(C)NC(=O)CCC[C@H]23)n1 [BDH_24639981] | -1.66
COc1ccc(C2(C(=O)N3CCCCC3CCNC(=O)c3ccccc3)CCCC2)cc1 (stereo not shown) [BDH_32336950] | 6.01

Other lines, results leading:

Inhibition percent [%] | Compound
0.75 | O=C(CN1CCc2ccccc2C1)N1CCCC2(CC1)CN(c1cccc(Cl)c1)C(=O)O2 (stereo not shown) [BDH_32295686]
1.56 | Cn1cc(CC(=O)N2C[C@@H](c3cccc(F)c3)[C@@]3(CCCCC(=O)N3)C2)c2ccccc21 [BDH_32306274]
3.75 | O=C(c1ccccc1Cn1ccnc1)N1CCCC(c2cncc(Oc3ccccc3)n2)C1 (stereo not shown) [BDH_32338420]

— PMC9995496, “A screen for MeCP2-TBL1 interaction inhibitors using a luminescence-based assay” (Scientific Reports, 2023)
